Data on 31 compounds can be found in patent US10865191B2, “Heterocyclic compounds useful as modulators of TNF alpha” (BRISTOL-MYERS SQUIBB COMPANY, priority 2015, dated 2020).

The structures appear in SMILES notation.

TNFα, sequence (P01375 77-233 limits assumed): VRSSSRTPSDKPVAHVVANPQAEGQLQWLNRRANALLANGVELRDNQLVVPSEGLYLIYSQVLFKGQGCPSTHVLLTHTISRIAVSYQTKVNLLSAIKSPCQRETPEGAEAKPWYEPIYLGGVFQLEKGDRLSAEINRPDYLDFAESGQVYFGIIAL

For the first test, the target named is TNFα (Homo sapiens, UniProt P01375). The experiment in a line: TNF induced HEK-Blue assay (NF-kB-driven secreted alkaline phosphatase reporter). The following applies: TNF induced HEK-Blue assay IC50 value, TNFα 0.5 ng/mL, HEK-Blue-CD40L cells, 18 h. It counts as cell-based. In a few lines:
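HEK-Blue-CD40L cells (NF-kB-driven SEAP reporter), 20,000/well, added after 30 min pre-incubation of compound (0.004–25 μM final) with TNFα 0.5 ng/mL final at 37 °C; 18 h incubation. SEAP read with QUANTI-Blue at 620 nm; IC50 from 4-parameter logistic fit, normalized to unstimulated and stimulated DMSO controls.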
Usually IC50 stands for the concentration at which inhibition is half-maximal. As to `CC(Nc1c(Cl)cnc2ccc(-c3cnc(C(C)(C)O)nc3)cc12)c1cccc(F)c1` (racemic) [Example 155, 2-(5-(3-chloro-4-((1-(3-fluorophenyl)ethyl)amino)quinolin-6-yl)pyrimidin-2-yl)propan-2-ol], the IC50 was 1000 to 10000 nM.

On to `CCOc1ncc(-c2ccc3ncc(Cl)c(N[C@H](C)c4ccccc4F)c3c2)cn1` [Example 222, (R)-3-chloro-6-(2-ethoxypyrimidin-5-yl)-N-(1-(2-fluorophenyl)ethyl)quinolin-4-amine], for which the IC50 was less than 1000 nM.

`C[C@@H](Nc1c(Cl)cnc2ccc(-c3cnc(C(C)(C)O)nc3)cc12)c1cc(N2CCCC2)ccc1F` [Example 364, (R)-2-(5-(3-chloro-4-((1-(2-fluoro-5-(pyrrolidin-1-yl)phenyl)ethyl)amino)quinolin-6-yl)pyrimidin-2-yl)propan-2-ol]: the IC50 was less than 1000 nM.

The test is the same for the next values; noted with them: TNFα 0.5 ng/mL, HEK-Blue-CD40L cells, 18 h; read-out: TNF induced HEK-Blue assay IC50 value.
`Cc1nc2ccc(-c3cnc(C(C)(C)O)nc3)cc2c(N[C@H](C)c2cc(Cl)ccc2F)c1Cl` [Example 406, (R)-2-(5-(3-chloro-4-((1-(5-chloro-2-fluorophenyl)ethyl)amino)-2-methylquinolin-6-yl)pyrimidin-2-yl)propan-2-ol]: the IC50 is less than 1000 nM.

As to `CC(Nc1c(Cl)cnc2cc(F)c(-c3ccc(C(O)CN4CCOCC4)cc3)cc12)c1ccccc1F` (stereo not shown) [Example 272, 1-(4-(3-chloro-7-fluoro-4-((1-(2-fluorophenyl)ethyl)amino)quinolin-6-yl)phenyl)-2-morpholinoethan-1-ol], the IC50 was less than 1000 nM.

Take `CC(Nc1c(Cl)cnc2ccc(-c3cnc(C(C)(C)O)nc3)c(F)c12)c1ccccc1F` (racemic) [Example 253, 2-(5-(3-chloro-5-fluoro-4-((1-(2-fluorophenyl)ethyl)amino)quinolin-6-yl)pyrimidin-2-yl)propan-2-ol]: the IC50 is less than 1000 nM.

Turning to `Cc1nc2ccc(-c3cnc(C(C)(C)O)nc3)cc2c(N[C@H](C)c2cc(-n3cccn3)ccc2F)c1Cl` [Example 365, (R)-2-(5-(3-chloro-4-((1-(2-fluoro-5-(1H-pyrazol-1-yl)phenyl)ethyl)amino)-2-methylquinolin-6-yl)pyrimidin-2-yl)propan-2-ol], the half-inhibitory concentration (IC50) was less than 1000 nM.

As for `CC(Nc1c(Cl)cnc2c(Cl)cc(-c3cnc(N4CCNC(=O)C4)nc3)cc12)c1ccccc1F` (racemic) [Example 18, 4-(5-(3,8-dichloro-4-((1-(2-fluorophenyl)ethyl)amino)quinolin-6-yl)pyrimidin-2-yl)piperazin-2-one], the IC50 is 1000 to 10000 nM.

Consider `CC(Nc1c(Cl)cnc2ccc(-c3ccc(C(C)(C)O)cc3)cc12)c1nccn1C` (racemic) [Example 201, 2-(4-(3-chloro-4-((1-(1-methyl-1H-imidazol-2-yl)ethyl)amino)quinolin-6-yl)phenyl)propan-2-ol], for which the IC50 lay in the range of 10000 to 25000 nM.

For `CN(C)CC(Nc1c(Cl)cnc2ccc(-c3cnc(C(C)(C)O)nc3)cc12)c1ccccc1F` (racemic) [Example 12, 2-(5-(3-chloro-4-((2-(dimethylamino)-1-(2-fluorophenyl)ethyl)amino)quinolin-6-yl)pyrimidin-2-yl) propan-2-ol], the IC50 was in the range of 1000 to 10000 nM.

On to `CC(=O)NCc1ccc(-c2ccc3ncc(Cl)c(N[C@H](C)c4ccccc4F)c3c2)cc1` [Example 110, (R)—N-(4-(3-chloro-4-((1-(2-fluorophenyl)ethyl)amino)quinolin-6-yl)benzyl)acetamide], for which the IC50 is less than 1000 nM.

Turning to `COCC(C)(O)c1ncc(-c2cc3c(NC(C)c4ccccc4F)c(Cl)cnc3cc2F)cn1` (stereo not shown) [Example 293, 2-(5-(3-chloro-7-fluoro-4-((1-(2-fluorophenyl)ethyl)amino)quinolin-6-yl)pyrimidin-2-yl)-1-methoxypropan-2-ol], the IC50 is less than 1000 nM.

As to `CC(Nc1c(Cl)cnc2cc(F)c(-c3cnc(N4CCN(C(=O)CCC(=O)O)CC4)nc3)cc12)c1ccccc1F` (single isomer, unassigned) [Example 602, 4-(4-(5-(3-chloro-7-fluoro-4-((1-(2-fluorophenyl)ethyl)amino)quinolin-6-yl)pyrimidin-2-yl)piperazin-1-yl)-4-oxobutanoic acid], the IC50 is less than 1000 nM.

Consider `C=Cc1ccc(F)c(C(CC)Nc2c(Cl)cnc3ccc(-c4cnc(C(C)(C)O)nc4)cc23)n1` (racemic) [Example 126, 2-(5-(3-chloro-4-((1-(3-fluoro-6-vinylpyridin-2-yl)propyl)amino)quinolin-6-yl)pyrimidin-2-yl)propan-2-ol], for which the IC50 was less than 1000 nM.

With `Cc1nc2ccc(-c3cnc(C(C)(C)O)nc3)cc2c(N[C@H](C)c2cc(N3CCNC3=O)ccc2F)c1Cl` [Example 373, (R)-1-(3-(1-((3-chloro-6-(2-(2-hydroxypropan-2-yl)pyrimidin-5-yl)-2-methylquinolin-4-yl)amino)ethyl)-4-fluorophenyl)imidazolidin-2-one], the IC50 was less than 1000 nM.

For the compound `Cc1nc2cc(F)c(-c3cnc(C(C)(C)O)nc3)cc2c(N[C@H](C)c2cc(CC(N)=O)ccc2F)c1Cl` [Example 554, (R)-2-(3-(1-((3-chloro-7-fluoro-6-(2-(2-hydroxypropan-2-yl)pyrimidin-5-yl)-2-methylquinolin-4-yl)amino)ethyl)-4-fluorophenyl)acetamide], the IC50 is less than 1000 nM.

Take `Cc1ccc(C)c(C(C)Nc2c(Cl)cnc3ccc(-c4cnc(C(C)(C)O)nc4)cc23)c1` (racemic) [Example 149, 2-(5-(3-chloro-4-((1-(2,5-dimethylphenyl)ethyl)amino)quinolin-6-yl)pyrimidin-2-yl)propan-2-ol]: the IC50 is 1000 to 10000 nM.

As to `Cc1nc2ccccc2c(N[C@H](C)c2cc(Br)ccc2F)c1Cl` [Example 538, (R)—N-(1-(5-bromo-2-fluorophenyl)ethyl)-3-chloro-2-methylquinolin-4-amine], the IC50 lay within 1000 to 10000 nM.

As for `C[C@@H](Nc1c(Cl)cnc2cc(F)c(-c3cnc(C(C)(C)O)nc3)nc12)c1cccc(C(O)CO)c1` (stereo partly drawn) [Example 573, 1-(3-((R)-1-((3-chloro-7-fluoro-6-(2-(2-hydroxypropan-2-yl)pyrimidin-5-yl)-1,5-naphthyridin-4-yl)amino)ethyl)phenyl)ethane-1,2-diol], the IC50 was less than 1000 nM.

As to `Cc1cc(-c2ccc(F)c([C@@H](C)Nc3c(Cl)cnc4ccccc34)c2)cnn1` [Example 477, (R)-3-chloro-N-(1-(2-fluoro-5-(6-methylpyridazin-4-yl)phenyl)ethyl)quinolin-4-amine], the IC50 was 1000 to 10000 nM.

In the case of `C[C@@H](Nc1c(Cl)cnc2ccc(-c3cnc(C(C)(C)O)nc3)cc12)c1cc(-c2cnn(CC(=O)O)c2)ccc1F` [Example 346, (R)-2-(4-(3-(1-((3-chloro-6-(2-(2-hydroxypropan-2-yl)pyrimidin-5-yl)quinolin-4-yl)amino)ethyl)-4-fluorophenyl)-1H-pyrazol-1-yl)acetic acid], the IC50 was 1000 to 10000 nM.

`CC(C)(O)c1ncc(-c2ccc3ncc(Cl)c(CNc4ccccc4)c3c2)cn1` [Example 11, 2-(5-(3-chloro-4-((phenylamino)methyl)quinolin-6-yl)pyrimidin-2-yl)propan-2-ol]: the IC50 fell in the range of 10000 to 25000 nM.

Turning to `CCC(Nc1c(Cl)cnc2ccc(-c3cnc(C(C)(C)O)nc3)cc12)c1nc(Br)ccc1F` (racemic) [Example 64, 2-(5-(4-((1-(6-bromo-3-fluoropyridin-2-yl)propyl)amino)-3-chloroquinolin-6-yl)pyrimidin-2-yl)propan-2-ol], the half-inhibitory concentration (IC50) was less than 1000 nM.

On to `C[C@@H](Nc1c(Cl)cnc2ccccc12)c1cc(-c2cnc(C(C)(C)O)nc2)ccc1F` [Example 469, (R)-2-(5-(3-(1-((3-chloroquinolin-4-yl)amino)ethyl)-4-fluorophenyl)pyrimidin-2-yl)propan-2-ol], for which the IC50 was 1000 to 10000 nM.

As for `C[C@@H](Nc1c(Cl)cnc2ccccc12)c1cc(-c2cnc(N)nc2)ccc1F` [Example 481, (R)—N-(1-(5-(2-aminopyrimidin-5-yl)-2-fluorophenyl)ethyl)-3-chloroquinolin-4-amine], the concentration for half-maximal inhibition (IC50) was less than 1000 nM.

`C[C@@H](Nc1c(Cl)cnc2ccccc12)c1cc(-c2cccnc2)ccc1F` [Example 461, (R)-3-chloro-N-(1-(2-fluoro-5-(pyridin-3-yl)phenyl)ethyl)quinolin-4-amine]: the IC50 is less than 1000 nM.

On to `CC[C@@H](Nc1c(Cl)cnc2ccccc12)c1cc(-c2cncnc2)ccc1F` [Example 558, (R)-3-chloro-N-(1-(2-fluoro-5-(pyrimidin-5-yl)phenyl)propyl)quinolin-4-amine], for which the 50% inhibitory concentration (IC50) is less than 1000 nM.

For the compound `CC(C)(O)c1ncc(-c2ccc3ncc(Cl)c(N[C@H](CCF)c4ccccc4F)c3c2)cn1` (single isomer, unassigned) [Example 238], the IC50 was less than 1000 nM.

With `C[C@H](Nc1c(Cl)cnc2ccc(-c3cnc(C(C)(C)O)nc3)cc12)[C@H]1CCCN(C(=O)c2cn[nH]c2)C1` [Example 565, ((S)-3-((S)-1-((3-chloro-6-(2-(2-hydroxypropan-2-yl)pyrimidin-5-yl)quinolin-4-yl)amino)ethyl)piperidin-1-yl)(1H-pyrazol-4-yl)methanone], the IC50 was 10000 to 25000 nM.

Regarding `CC#CC(=O)N1CCN(c2ccc(-c3ccc4ncc(Cl)c(N[C@H](C)c5ccccc5F)c4c3)cn2)CC1` [Example 125, (R)-1-(4-(5-(3-chloro-4-((1-(2-fluorophenyl)ethyl)amino)quinolin-6-yl)pyridin-2-yl)piperazin-1-yl)but-2-yn-1-one], the IC50 was less than 1000 nM.

For `Cc1nc2c(F)cc(-c3cnc(C(C)(C)O)nc3)cc2c(NC(C)c2ccc(F)cc2)c1Cl` (racemic) [Example 301, 2-(5-(3-chloro-8-fluoro-4-((1-(4-fluorophenyl)ethyl)amino)-2-methylquinolin-6-yl)pyrimidin-2-yl)propan-2-ol], the IC50 was 10000 to 25000 nM.
